Assay results taken from US20220241207A1, “EXTENDED-RELEASE SOLID ORAL DOSAGE FORM COMPRISING VITAMIN B12 AND A VITAMIN B12 DEPLETING DRUG” (DSM IP ASSETS B.V., priority 2019, published 2022).

Experimental: The solubilization medium was: • SIF (simulated intestinal fluid, pH=6.8, prepared according to Ph. Eur.)
The dissolution medium was heated to 37° C. and the analyses were performed at this temperature. During the analyses, the salts were added in access to the solubilization media and left to mix for 24 h. Afterwards, the solutions were filtered, and the precipitates were investigated using ATR-IR analysis to confirm the presence of the starting material (e.g. respective Ca salt). Attenuated total reflection (ATR) is a sampling technique used in conjunction with infrared spectroscopy which enables samples to be examined directly in the solid or liquid state without further preparation. The filtered solutions were analysed for Ca^2+ ions content.

For “dicalciumphosphat anhydrous [dicalcium phosphate anhydrous]”, the “Ca^2+ ions average” value was 0.028 mg/mL and the solubility average (pH 6.8) was 90 µg/mL.
